Source: patent US10506809B2, “Herbicidal combination comprising saflufenacil and glufosinate” (BASF SE, priority 2015, dated 2019)
Like-named read-outs stand apart in the source and are kept apart here.

Legend:
Format in all cases: in vivo
Abutilon theophrasti = assay: Greenhouse post-emergence herbicidal activity on ABUTH (velvetleaf)
From the text: (§1) The test plants were first grown to a height of 3 to 20 cm, depending on the plant habit, and only then treated (post-emergence treatment). Here, the herbicidal combinations were suspended, emulsified or dissolved in water as distribution medium and afterwards applied by spraying, using finely distributing nozzles.
(§2) The herbicides A, B and C were used as commercially available formulations and introduced to the spray liquor with the amount of solvent system used for applying the active compound. In the examples, the solvent used was water.
(§3) The test period extended over 20 days. During this time, the plants were tended, and their response to the treatments with active compounds was evaluated.
(§4) The evaluation for the damage caused by the chemical compositions was carried out using a scale from 0 to 100%, compared to the untreated control plants. Here, 0 means no damage and 100 means complete destruction of the plants.
(§5) The plants used in the greenhouse experiments belonged to the following species:
(§6) The value E, which is to be expected if the activity of the individual compounds is just additive, was calculated using the method of S. R. Colby (1967) “Calculating synergistic and antagonistic responses of herbicide combinations”, Weeds 15, p. 22 ff. For two component mixtures the value E was calculated by the following formula E=X+Y−(X·Y/100) where • X=effect in percent using a mixture of herbicides A and B at application rates a and b, respectively; • Y=effect in percent using herbicide C at an application rate c; • E=expected effect (in %) of A+B+C at application rates a+b+c.
(§7) If the value observed in this manner is higher than the value E calculated according to Colby, a synergistic effect is present.
(§8) Tables 1 to 21 relate to the herbicidal activities of the binary mixture of herbicides A and B, of herbicide C individually and of their combinations in post-emergence application assessed 20 days after treatment (20 DAT).

Avena fatua = assay: Greenhouse post-emergence herbicidal activity on AVEFA (common wild oat)
From the text: as §1, §2, §3, §4, §5, §6, §7, §8

Echinochloa crus-galli = assay: Greenhouse post-emergence herbicidal activity on ECHCG (barnyard grass)
From the text: as §1, §2, §3, §4, §5, §6, §7, §8

Amaranthus retroflexus = assay: Greenhouse post-emergence herbicidal activity on AMARE (pig weed)
From the text: as §1, §2, §3, §4, §5, §6, §7, §8

Setaria viridis = assay: Greenhouse post-emergence herbicidal activity on SETVI (green foxtail)
From the text: as §1, §2, §3, §4, §5, §6, §7, §8

Brachiaria decumbens = assay: Greenhouse post-emergence herbicidal activity on BRADC (Surinam grass)
From the text: as §1, §2, §3, §4, §5, §6, §7, §8

Digitaria sanguinalis = assay: Greenhouse post-emergence herbicidal activity on DIGSA (large crabgrass)
From the text: as §1, §2, §3, §4, §5, §6, §7, §8

Solanum nigrum = assay: Greenhouse post-emergence herbicidal activity on SOLNI (black nightshade)
From the text: as §1, §2, §3, §4, §5, §6, §7, §8

Brachiaria platyphylla = assay: Greenhouse post-emergence herbicidal activity on BRAPP (broadleaf signalgrass)
From the text: as §1, §2
The test period extended over 20 days. During this time, the plants were tended, and their response to the treatments with active compounds was evaluated. […]
The value E, which is to be expected if the activity of the individual compounds is just additive, was calculated using the method of S. R. Colby (1967) “Calculating synergistic and antagonistic responses of herbicide combinations”, Weeds 15, p. […] For two component mixtures the value E was calculated by the following formula E=X+Y−(X·Y/100) where • X=effect in percent using a mixture of herbicides A and B at application rates a and b, respectively; • Y=effect in percent using herbicide C at an application rate c; • E=expected effect (in %) of A+B+C at application rates a+b+c.
If the value observed in this manner is higher than the value E calculated according to Colby, a synergistic effect is present. […]

[1] = Abutilon theophrasti, 480 h, ABUTH, solo C 20.0 g ai/ha, 20 DAT, read-out: % activity 20 DAT
[2] = solo C S-metolachlor 150.0 g ai/ha
[3] = solo C 2,4-D LV ester 6.25 g ai/ha

## Nc1c(Cl)c(F)nc(OCC(=O)O)c1Cl [fluroxypyr, Fluroxypyr]
Abutilon theophrasti; [1]
  pest or weed control at 20 g/ha: 50%
Avena fatua; solo C 10.0 g ai/ha
  % activity 20 DAT: 0%

## O=C(O)c1c(Cl)ccc2cc(Cl)cnc12 [quinclorac, Quinclorac]
Avena fatua; Avena fatua, 480 h, solo C quinclorac 5.0 g ai/ha, read-out: % activity 20 DAT
  inhibition at 5 g/ha: 0%
Echinochloa crus-galli; Echinochloa crus-galli, 480 h, solo C quinclorac 5.0 g ai/ha, read-out: % activity 20 DAT
  inhibition at 5 g/ha: 0%

## CS(=O)(=O)c1ccc(C(=O)C2C(=O)CCCC2=O)c(Cl)c1COCC(F)(F)F [tembotrione, Tembotrione]
Abutilon theophrasti; Abutilon theophrasti, 480 h, solo C tembotrione 1.0 g ai/ha, ABUTH, read-out: % activity 20 DAT
  inhibition at 1 g/ha: 10%
Amaranthus retroflexus; Amaranthus retroflexus, 480 h, solo C tembotrione 0.5 g ai/ha, read-out: % activity 20 DAT
  inhibition at 0.5 g/ha: 80%
Avena fatua; Avena fatua, 480 h, solo C tembotrione 1.0 g ai/ha, read-out: % activity 20 DAT
  inhibition at 1 g/ha: 10%
Setaria viridis; Setaria viridis, 480 h, solo C tembotrione 1.0 g ai/ha, SETVI, read-out: % activity 20 DAT
  inhibition at 1 g/ha: 0%

## Bicyclopyrone
Avena fatua; solo C 2.0 g ai/ha
  % activity 20 DAT: 0%
Echinochloa crus-galli; solo C 20.0 g ai/ha
  % activity 20 DAT: 75%
Setaria viridis; SETVI, solo C 1.0 g ai/ha, 20 DAT
  % activity 20 DAT: 0%

## Cc1nn(-c2cc(NS(C)(=O)=O)c(Cl)cc2Cl)c(=O)n1C(F)F [salfentrazone, Sulfentrazone]
Abutilon theophrasti; Abutilon theophrasti, 480 h, solo C salfentrazone 1.5 g ai/ha, ABUTH, read-out: % activity 20 DAT
  inhibition at 1.5 g/ha: 40%
Setaria viridis; Setaria viridis, 480 h, solo C salfentrazone 1.5 g ai/ha, SETVI, read-out: % activity 20 DAT
  inhibition at 1.5 g/ha: 30%

## CCc1cccc(C)c1N(C(=O)CCl)[C@@H](C)COC [S-metolachlor, S-Metolachlor]
Abutilon theophrasti; solo C S-metolachlor 150.0 g ai/ha, ABUTH
  % activity 20 DAT: 10%
Brachiaria decumbens; [2]
  % activity 20 DAT: 0%
Digitaria sanguinalis; [2]
  % activity 20 DAT: 0%
Setaria viridis; solo C S-metolachlor 300.0 g ai/ha, SETVI
  % activity 20 DAT: 60%

## CCNc1nc(Cl)nc(NC(C)C)n1 [atrazin, Atrazin]
Solanum nigrum; Solanum nigrum, 480 h, solo C atrazin 6.25 g ai/ha, read-out: % activity 20 DAT
  inhibition at 6.25 g/ha: 35%

## C#CCN1C(=O)COc2cc(F)c(N3C(=O)C4=C(CCCC4)C3=O)cc21 [flumioxazin, Flumioxazin]
Abutilon theophrasti; Abutilon theophrasti, 480 h, solo C flumioxazin 0.125 g ai/ha, ABUTH, read-out: % activity 20 DAT
  inhibition at 0.125 g/ha: 80%
Setaria viridis; Setaria viridis, 480 h, solo C flumioxazin 0.25 g ai/ha, SETVI, read-out: % activity 20 DAT
  inhibition at […]: 60%

## Cc1nn(C)c(O)c1C(=O)c1ccc(C(F)(F)F)cc1S(C)(=O)=O [pyrasulfotole, Pyrasulfotole]
Brachiaria decumbens; solo C 5.0 g ai/ha, 20 DAT
  % activity 20 DAT: 0%
Digitaria sanguinalis; solo C 5.0 g ai/ha, 20 DAT
  % activity 20 DAT: 35%
Echinochloa crus-galli; solo C 2.5 g ai/ha
  % activity 20 DAT: 80%

## CS(=O)(=O)c1ccc(C(=O)C2C(=O)CCCC2=O)c([N+](=O)[O-])c1 [mesotrione, Mesotrione]
Setaria viridis; Setaria viridis, 480 h, solo C mesotrione 2.5 g ai/ha, SETVI, read-out: % activity 20 DAT
  inhibition at […]: 25%
Solanum nigrum; Solanum nigrum, 480 h, solo C mesotrione 1.25 g ai/ha, read-out: % activity 20 DAT
  inhibition at 1.25 g/ha: 85%

## CCC(CC)Nc1c([N+](=O)[O-])cc(C)c(C)c1[N+](=O)[O-] [pendimethalin, Pendimethalin]
Amaranthus retroflexus; Amaranthus retroflexus, 480 h, solo C pendimethalin 75.0 g ai/ha, read-out: % activity 20 DAT
  inhibition at 75 g/ha: 55%
Setaria viridis; Setaria viridis, 480 h, solo C pendimethalin 150.0 g ai/ha, SETVI, read-out: % activity 20 DAT
  inhibition at 150 g/ha: 25%

## CCCCC(CC)COC(=O)COc1ccc(Cl)cc1Cl (stereo not drawn) [2,4-D LV ester, 2,4-D]
Amaranthus retroflexus; [3]
  % activity 20 DAT: 45%
Brachiaria platyphylla; [3]
  % activity 20 DAT: 10%

## COC[C@H](C)N(C(=O)CCl)c1c(C)csc1C [dimethenamid-P, Dimethenamid-P]
Solanum nigrum; solo C dimethenamid-P 18.75 g ai/ha
  % activity 20 DAT: 10%

## Cc1ccc(S(=O)(=O)Oc2c(C(=O)c3ccc(Cl)cc3Cl)c(C)nn2C)cc1 [pyrazolynate, Pyrazolynate]
Abutilon theophrasti; [1]
  pest or weed control at 20 g/ha: 25%
Brachiaria decumbens; solo C 10.0 g ai/ha, 20 DAT
  % activity 20 DAT: 0%
Digitaria sanguinalis; solo C 10.0 g ai/ha, 20 DAT
  % activity 20 DAT: 0%

## CCOc1nc(F)cc2nc(S(=O)(=O)Nc3c(Cl)cccc3Cl)nn12 [diclosulam, Diclosulam]
Setaria viridis; solo C diclosulam 0.5 g ai/ha, SETVI
  % activity 20 DAT: 35%
Solanum nigrum; solo C diclosulam 0.25 g ai/ha
  % activity 20 DAT: 25%

## CS(=O)(=O)c1cc(C(F)(F)F)ccc1C(=O)c1cnoc1C1CC1 [isoxaflutole, Isoxaflutole]
Amaranthus retroflexus; Amaranthus retroflexus, 480 h, solo C isoxaflutole 0.5 g ai/ha, read-out: % activity 20 DAT
  inhibition at 0.5 g/ha: 55%
Brachiaria platyphylla; Urochloa platyphylla, 480 h, solo C isoxaflutole 1.0 g ai/ha, read-out: % activity 20 DAT
  inhibition at 1 g/ha: 25%

## Cc1c(C(=O)c2cnn(C)c2O)ccc(S(C)(=O)=O)c1C1=NOCC1 [topramezone, Topramezone]
Abutilon theophrasti; ABUTH, solo C 0.25 g ai/ha, 20 DAT
  % activity 20 DAT: 0%
Avena fatua; solo C 0.25 g ai/ha
  % activity 20 DAT: 10%
Digitaria sanguinalis; solo C 0.25 g ai/ha, 20 DAT
  % activity 20 DAT: 10%
Echinochloa crus-galli; solo C 0.25 g ai/ha
  % activity 20 DAT: 20%

## COc1c(Cl)ccc(Cl)c1C(=O)O [dicamba, Dicamba]
Abutilon theophrasti; Abutilon theophrasti, 480 h, solo C dicamba 17.5 g ai/ha, ABUTH, read-out: % activity 20 DAT
  inhibition at 17.5 g/ha: 70%
Setaria viridis; Setaria viridis, 480 h, read-out: % activity 20 DAT
  inhibition at 8.75 g/ha: 15%

## CS(=O)(=O)c1ccc(C(=O)C2=C(Sc3ccccc3)C3CCC(C3)C2=O)c(Cl)c1 (stereo not drawn) [benzobicyclon, Benzobicyclon]
Abutilon theophrasti; ABUTH, solo C 20.0 g ai/ha, 20 DAT
  % activity 20 DAT: 90%
Amaranthus retroflexus; solo C 20.0 g ai/ha, 20 DAT
  % activity 20 DAT: 60%
Avena fatua; solo C 10.0 g ai/ha
  % activity 20 DAT: 10%
Digitaria sanguinalis; solo C 20.0 g ai/ha, 20 DAT
  % activity 20 DAT: 60%

## CCOCN(C(=O)CCl)c1c(C)cccc1CC [acetochlor, Acetochlor]
Abutilon theophrasti; Abutilon theophrasti, 480 h, solo C acetochlor 12.5 g ai/ha, ABUTH, read-out: % activity 20 DAT
  inhibition at 12.5 g/ha: 10%

## CS(=O)(=O)c1ccc(C(=O)C2C(=O)CCCC2=O)c(Cl)c1 [sulcotrione, Sulcotrione]
Abutilon theophrasti; Abutilon theophrasti, 480 h, read-out: % activity 20 DAT
  pest or weed control at 20 g/ha: 85%
Brachiaria decumbens; solo C 5.0 g ai/ha, 20 DAT
  % activity 20 DAT: 0%
Echinochloa crus-galli; solo C 2.5 g ai/ha
  % activity 20 DAT: 30%
